The nature of data set [1]: Isoelectric point (PI) measurement. In kind it is physicochemical. The settings on record: unlabeled compound.
Data set [2] deals with HUTU-80 human duodenal adenocarcinoma cell line. The experiment in a line: Cell uptake and inhibition assay, HUTU-80. The format is cell-based. The procedure: The cell lines involved in the cell experiments in the test examples include: SUM149PT human breast cancer cell line, HUTU-80 human duodenal adenocarcinoma cell line, and U-118 MG human brain astrocytoma/glioblastoma cell line.
HUTU-80: Complete medium was formulated using DMEM high-glucose medium, 10% FBS, and a penicillin-streptomycin solution. The cells were cultured in a constant temperature incubator at 37° C. with 5% CO2. The culture medium was regularly replaced, and the cells were passaged. The culture medium was generally changed every 2 to 3 days. The growth of the tumor cells was observed daily under a microscope, including monitoring cell growth status, checking for adherence, examining cell morphology for any abnormalities, checking for contamination, and observing medium color for any abnormalities. Cells were passaged when they reached 80-90% confluence.
When cell confluence in the culture flask reached 80%, the cells were digested and centrifuged, and the supernatant was removed. An appropriate amount of medium was added to dilute so that each well contained 500 μL of medium for plating. After thorough mixing by pipetting, the cell suspension was seeded into a 24-well plate at a density of 5×10^5 cells per well. The plate was then placed into the incubator for continued growth. The cells were ready for cellular experiments when they reached 80% confluence.
(1) The cell uptake assay established four incubation time points: 15, 30, 60, and 120 minutes, respectively. For each time point, four groups were set up: non-inhibition group, a first single inhibition group (FAP single inhibition), a second single inhibition group (CXCR4/GRPR/αvβ3 single inhibition), and a dual inhibition group (FAP inhibitor+CXCR4/GRPR/αvβ3 inhibitor). Each group at each time point was set up with 3 triplicate wells.
(§1) (2) Cells were plated into a 24-well plate according to the cell plating procedure described above.
(3) The original culture medium was removed from the 24-well plate. Then, 400 μL of 100 mg/mL skimmed milk solution was added to each well for blocking for one hour. After removing the skimmed milk solution, each of the wells was washed three times by adding 400 μL of PBS solution. Subsequently, 146 μL of FBS-free medium was added to each well. […]
(6) The radioactivity in the cells was measured using a γ counter. […]

The test system is the same in data set [3]. The experiment in a line: Cell saturation binding assay, HUTU-80. As to conditions: 68Ga-labeled compound. As to the method:
(1) For the cell saturation binding assay, a total of 8 radiolabeled ligand concentrations were set at intervals within the anticipated range. For each concentration, there were 3 groups: the non-inhibition group, the first single inhibition group (FAP single inhibition group), and the second single inhibition group (CXCR4/GRPR/αvβ3 single inhibition group). For each concentration and each group, 3 replicate wells were established.
as §1
(3) The original culture medium was removed from the 24-well plate. Then, 400 μL of 100 mg/mL skimmed milk solution was added to each well for blocking for one hour. After removing the skimmed milk solution, each of wells was washed three times by adding 400 μL of PBS solution. Subsequently, 146 μL of FBS-free medium was added to each well. Next, the non-inhibition group received 4 μL of cold PBS per well, while the first single inhibition group and the second single inhibition group received the following additions per well according to Table 4: 2 μL of non-radiolabeled first single inhibitor solution and 2 μL of cold PBS; 2 μL of non-radiolabeled second single inhibitor solution and 2 μL of cold PBS. The plate was then incubated at room temperature for one hour.
(4) The ligands were radiolabeled with 68Ga using the labeling method described previously. Different volumes of FBS-free medium were added to formulate the radioligand systems at corresponding concentrations. Then, 50 μL of the corresponding concentration of the radioligand system was added to each well.
(5) The supernatant was removed, and the wells were washed three times with 400 μL of PBS. 200 μL of IM NaOH solution was added to each well for cell lysis. […] Each well was washed once with 400 μL of PBS solution, and the washings were sequentially added to the corresponding radioimmunoassay tubes.
(6) Radioactivity in the cells was measured using a γ counter. The equilibrium dissociation constant (KD) was obtained by fitting the curve using nonlinear regression analysis in GraphPad Prism software. KD is the drug concentration that causes half of the maximum effect (50% receptor occupancy).

Read-outs that look alike come from different tables or passages of the source.

Consider `CC(C)CC(CC(C)C)NC(=O)[C@H](Cc1cnc[nH]1)NC(=O)CNC(=O)C(NC(=O)[C@H](C)NC(=O)[C@H](Cc1c[nH]c2ccccc12)NC(=O)[C@H](CCC(N)=O)NC(=O)[C@@H](Cc1ccccc1)NC(=O)COCC(=O)Nc1ccc(CNC(=O)COCCOCCNC(=O)COCCOCCNC(=O)[C@H](CCCCNC(=O)CN2CCN(CC(=O)O)CCN(CC(=O)O)CCN(CC(=O)O)CC2)NC(=O)CCC(=O)N2CCN(CCCOc3ccc4nccc(C(=O)NCC(=O)N5CC(F)(F)C[C@H]5C#N)c4c3)CC2)cc1)C(C)C` (stereo partly drawn) [SDYD03], for which, in data set [1], the “PI range of series of peaks” value is 5.992-7.095. In addition, the “cell uptake over incubation time (in words)” value in data set [2] (15-120 minutes) was “increased slowly and reached a plateau from 15 to 120 minutes”. The “cell uptake, comparison of non-inhibition, FAP single, GRPR single and dual inhibition groups (in words)” value in data set [2] (FAPI-04 and BBN as inhibitors) is “cell uptake in the non-inhibition group was consistently higher than that in the other three groups”. The “inhibition rate, comparison of inhibition groups (in words)” value in data set [2] (FAPI-04 and BBN as inhibitors) is “inhibition rate of the dual inhibition group was higher than that of the FAP single inhibition group and the GRPR single inhibition group”. Also, in data set [2] (conclusion from inhibition groups), the “specific binding to FAP and GRPR (in words)” value is “can specifically bind to both FAP and GRPR”. The “KD values / binding affinity to the receptors (in words)” value in data set [3] is reported as “relatively low KD values”. The Kd was determined as 1.76 ± 0.224 nM in data set [3] (BBN solution (GRPR inhibitor), read-out: KD value, Second single inhibition group (CXCR4/GRPR/αvβ3 single inhibition)); 0.884 ± 0.152 nM in data set [3] (FAPI-04 solution, read-out: KD value, First single inhibition group (FAP single inhibition)); 1.23 ± 0.331 nM in data set [3] (read-out: KD value, Non-inhibition group).

Values taken from patent US20260069728A1, “MULTI-TARGETING COMPOUND AND USE THEREOF” (Chengdu Shetai Medical Technology Co., Ltd., priority 2023, published 2026).
